Assay results published in patent US20240299535A1, “TARGETED GLYCOSAMINOGLYCAN-PARTICLES AND METHODS OF USE” (priority 2021, published 2024).

Columns and labels:
RAW 264.7 macrophages [1] = assay: Endocytosis inhibition study of HEP-AuNP uptake (ICP-MS); assay type: cell-based, murine; conditions: for effect on nanoparticle cellular uptake / nanoparticle cellular uptake inhibition efficiencies: inhibitor screen, 1 h pre-incubation, nanoparticles 1.5 hours; for inhibitory effects for nanoparticle uptake: dose escalation, 0-31.4 μM chlorpromazine, 0-3.9 μM cytochalasin D
Protocol: Panel (A) is a schematic representation of the uptake pathway study: (i) non-specific endocytosis inhibition to determine whether nanoparticle cellular uptake is energy-dependent. (ii-iv) Specific endocytosis inhibitors for studying (ii) caveolae-mediated endocytosis, (iii) clathrin-mediated endocytosis, and (iv) macropinocytosis. Panels (B) to (D) are ICP-MS quantification of the nanoparticle cellular uptake in RAW 264.7 macrophages at 4° C.—Panel (B), in the presence of ATPase inhibitor sodium azide—Panel (C), or chemical endocytosis inhibitors of caveolae-mediated endocytosis, clathrin-mediated endocytosis, and […]—Panel (D). AuNPs modified with 13-kDa HEP (at 0.2 nM) were used as control without inhibitors at 37° C. Bars indicate mean±SD (n=3-4); statistical tests used one-way ANOVA (p<0.0001 (****); p<0.0021 (**); p<0.0332 (*).
We hypothesized that these nanoparticles might enter cells via endocytosis by one or more energy-dependent uptake pathways. Thus, we carried out a systematic endocytosis inhibition study to discern which uptake pathways were involved.
First, we pre-incubated the innate immune cells for 1 h with the endocytosis inhibitors. Then we added the nanoparticles and incubated them with the cells for 1.5 hours. We imaged the cells with a light microscope and quantified the nanoparticle uptake by ICP-MS (FIG. 2, Panel (D)).
(§1) We performed systematic dose escalation studies to assess the dose-response of the inhibitory effect and the cell toxicity of these two agents. Based on the previous dose screening experiments and published cell viability data the dose ranges were 0-31.4 μM and 0-3.9 μM for chlorpromazine and cytochalasin D, respectively.

RAW 264.7 macrophages [2] = assay: HEP structural analog competition of HEP-AuNP uptake (ICP-MS); assay type: cell-based, murine; conditions: pre-incubation with competitor
Description: To quantify the nanoparticles' cellular interactions, we performed quantitative ICP-MS and corroborated the results qualitatively with light microscopy. […] No significant competition with the remaining structural analogs was observed.

RAW 264.7 macrophages [3] = tested on: RAW 264.7 macrophages
Description: We next investigated whether the CS A inhibitory effect of HEP-AuNP uptake was due to a potential toxicity effect of the CS A preparation, which was extracted from a mammalian source.

cell uptake of HEP-AuNPs = assay: CS A competition as a function of time and concentration (ICP-MS); assay type: cell-based
Description: We further assessed the competition effect of CS A as a function of time and concentration at non-cytotoxic levels. […] These competition experiments with GAG structural analog polymers imply that CS A can substitute to some degree as a ligand for HEP for the internalization receptor(s).

DC 2.4 dendritic cells [4] = assay: CS A competition of HEP-AuNP uptake (ICP-MS); assay type: cell-based, murine; conditions: 1 hour pre-incubation, nanoparticles 2.5 hour; non-cytotoxic doses
Description: Next, we expanded the structural analog competition study to DC 2.4 dendritic cells. […] We quantified the competition efficiency by ICP-MS and corroborated the results with light microscopy.

DC 2.4 dendritic cells [5] = assay: Endocytosis inhibition study of HEP-AuNP uptake (ICP-MS); assay type: cell-based, murine
Protocol: To test whether the HEP-coated nanoparticles could enter cells through clathrin-mediated endocytosis and macropinocytosis and/or phagocytosis in another immune cell line, we conducted further inhibition experiments in DC 2.4 dendritic cells. […] Additionally, we co-incubated chlorpromazine and cytochalasin D inhibitors with cells to test if there was any additive endocytosis inhibitory effect.

RAW264.7 macrophages = assay: Cell viability assays with endocytosis inhibitors; conditions: 0-31.4 μM chlorpromazine, 0-3.9 μM cytochalasin D
Protocol: as §1

Compound: CCCCC[C@@H](O)[C@H]1C(=O)O[C@H](C)[C@@H](O)/C=C/C=C/C=C/C=C/C=C(\C)[C@@H](O)C[C@H](O)C[C@H](O)C[C@H](O)C[C@H](O)C[C@H](O)C[C@@H]1O [Filipin]
- effect on nanoparticle cellular uptake (RAW 264.7 macrophages [1]): did not reduce the nanoparticle cellular uptake

Compound: Chondroitin Sulfate C [CS C]
- reduction of cellular uptake of HEP-AuNPs vs no-competitor group (RAW 264.7 macrophages [2]): approximately 15%

Compound: [N-]=[N+]=[N-] [sodium azide]
- reduction of cellular uptake of HEP-AuNPs (RAW 264.7 macrophages [1]; 0.1% w/v sodium azide): approximately 22%

Compound: CCN1C(=O)C=CC1=O [N-ethylmaleimide]
- effect on nanoparticle cellular uptake (RAW 264.7 macrophages [1]): did not reduce the nanoparticle cellular uptake

Compound: CCN(CC)CCCC(C)Nc1ccnc2cc(Cl)ccc12 (centres unmarked) [chloroquine]
- nanoparticle cellular uptake inhibition efficiencies (RAW 264.7 macrophages [1]): ~12%

Compound: CCN(c1nc(N)c(C(=O)N=C(N)N)nc1Cl)C(C)C [EIPA, 5-(N-ethyl-N-isopropyl) amiloride]
- effect on nanoparticle cellular uptake (RAW 264.7 macrophages [1]): did not reduce the nanoparticle cellular uptake

Compound: heparin
- reduction of cellular uptake of HEP-AuNPs vs no-competitor group (RAW 264.7 macrophages [2]): approximately 18%

Compound: O=C(N/N=C/c1ccc(O)c(O)c1)c1cc2ccccc2cc1O [Dynasore]
- effect on nanoparticle cellular uptake (RAW 264.7 macrophages [1]): did not reduce the nanoparticle cellular uptake

Compound: Chondroitin Sulfate A [CS A]
- effect on cell viability (RAW 264.7 macrophages [3]): did not affect cell viability
- IC50 (inhibitor dose-response of HEP-AuNP uptake) (cell uptake of HEP-AuNPs): 0.5 mg/mL
- inhibitory effect over time (cell uptake of HEP-AuNPs; 1 mg/mL): persisted throughout time
- suppression of cellular uptake of HEP-AuNPs (cell uptake of HEP-AuNPs; 2 mg/mL): up to 9 fold
- reduction of cellular uptake of HEP-AuNPs vs no-competitor group (RAW 264.7 macrophages [2]): ~43%
- nanoparticle uptake vs no-competitor group (DC 2.4 dendritic cells [4]): lower nanoparticle uptake

Compound: CN(C)CCCN1c2ccccc2CCc2ccccc21 [imipramine]
- nanoparticle cellular uptake inhibition efficiencies (RAW 264.7 macrophages [1]): ~8%

Compound: CN(C)CCCN1c2ccccc2Sc2ccc(Cl)cc21 [chlorpromazine]
- inhibitory effects for nanoparticle uptake (RAW 264.7 macrophages [1]): approximately 70%
- nanoparticle cellular uptake inhibition efficiencies (RAW 264.7 macrophages [1]): approximately 73%
- reduction of HEP-AuNP uptake (DC 2.4 dendritic cells [5]): approximately 77%
- cytotoxicity of inhibitor doses (RAW264.7 macrophages): not cytotoxic

Compound: C=C1[C@@H](C)[C@H]2[C@H](Cc3ccccc3)NC(=O)[C@]23[C@H](OC(C)=O)/C=C/[C@@](C)(O)C(=O)[C@@H](C)C/C=C/[C@H]3[C@@H]1O [cytochalasin D]
- inhibitory effects for nanoparticle uptake (RAW 264.7 macrophages [1]): approximately 51%
- nanoparticle cellular uptake inhibition efficiencies (RAW 264.7 macrophages [1]): ~24%
- reduction of HEP-AuNP uptake (DC 2.4 dendritic cells [5]): approximately 77%
- cytotoxicity of inhibitor doses (RAW264.7 macrophages): not cytotoxic
